We go through 25 compounds from ChEMBL document CHEMBL5338799, “Synthesis and evaluation of phenylimidazole FabK inhibitors as new Anti-C. Difficile agents” (Bioorg Med Chem, 2023).

Data set [1] in a line: Solubility of compound by turbidimetric assay. It is filed as physicochemical.
Data set [2] can be described thus: Inhibition of Clostridioides difficile FabK expressed in Escherichia coli BL21 (DE3) using crotonyl-CoA as substrate incubated for 10 mins in presence of NADH by microplate reader assay.
The test system of the next data set is Clostridioides difficile. In words: Antibacterial activity against Clostridioides difficile R20291 assessed as inhibition of bacterial growth incubated for 24 hrs by broth microdilution method. The format is functional.
The subject of another data set is HCT-116. In words: cells. The format is functional, cell-based. The settings on record: Homo sapiens, HCT-116, 48 h.
Data set [3] in a line: Inhibition of Streptococcus pneumoniae FabK expressed in Escherichia coli BL21 (DE3) using crotonyl-CoA as substrate incubated for 10 mins in presence of NADH by microplate reader assay.

Each structure is given as a SMILES string. ≈ marks a conversion by molar mass, not a printed value. Bounds are passed on as bounds.

Description for HCT-116: Cytotoxicity against human HCT-116 cells assessed as reduction in cell viability incubated for 48 hrs by resazurin dye based assay

In data set [1], `CS(=O)(=O)c1ccc2nc(NC(=O)NCc3nc(-c4ccc(Br)cc4)c[nH]3)sc2c1` displayed a kinetic solubility of 44.5 µM (≈ 22.5 µg/mL). Besides, in data set [2], the half-inhibitory concentration (IC50) came to 450 nM. The MIC in the data set on Clostridioides difficile was over 100 µg/mL.
In turn, `O=C(NCc1nc(-c2ccc(Br)cc2)c[nH]1)Nc1nc2ccc(F)cc2s1` returned a kinetic solubility in data set [1] of 61.3 µM (≈ 27.4 µg/mL). In data set [2], the IC50 worked out at 230 nM.
As for `O=C(NCc1nc2ccccc2[nH]1)Nc1ncc(Sc2ccccn2)s1`, the IC50 in data set [2] was over 10000 nM. Moreover, in the data set with Clostridioides difficile, the MIC is over 50 µg/mL.
Turning to `O=C(NCc1nc(-c2ccc(Br)cc2)c[nH]1)Nc1nc2cccc(C(F)(F)F)c2s1`, the IC50 in data set [2] was 2810 nM.
As for `O=C(NCc1nc(-c2ccc(Br)cc2)c[nH]1)Nc1ncc(Sc2ccc(C(F)(F)F)cn2)s1`, in data set [1], the kinetic solubility was 18.3 µM (≈ 10.2 µg/mL). Besides, the IC50 in data set [2] was 770 nM; in the data set with HCT-116 it was over 100 µg/mL. Moreover, in the data set on Clostridioides difficile, the MIC is 3.12 µg/mL (≈ 5.62 µM).
Compound `O=C(NCc1nc(-c2ccc(Br)cc2)c[nH]1)Nc1ncc(Sc2ccc(Cl)cn2)s1` came in with a kinetic solubility in data set [1] of 59 µM (≈ 30.8 µg/mL). In data set [2], the IC50 worked out at 850 nM. Further, the MIC in the data set on Clostridioides difficile is 3.12 µg/mL (≈ 5.98 µM).
Turning to `O=C(NCc1nc2ccccc2c(=O)[nH]1)Nc1ncc(Sc2ccccn2)s1`, the IC50 in data set [2] is over 10000 nM. For the same compound, the MIC with Clostridioides difficile is over 50 µg/mL.
`O=C(NCc1nc(-c2ccc(Br)cc2)c[nH]1)Nc1nc2ccc(Cl)cc2s1` returned a solubility (kinetic) in data set [1] of 76.9 µM (≈ 35.6 µg/mL). The IC50 in data set [2] was 110 nM; with HCT-116, over 100 µg/mL. Moreover, the MIC with Clostridioides difficile worked out at 6.25 µg/mL (≈ 13.5 µM).
As to `O=C(NCc1nc(-c2ccc(Br)cc2)c[nH]1)Nc1nc2ccccc2s1`, the kinetic solubility in data set [1] amounted to 64.8 µM (≈ 27.8 µg/mL). For the same compound, the IC50 in data set [2] was 1880 nM. Also, in the data set on Clostridioides difficile, the minimal inhibitory concentration (MIC) is over 50 µg/mL.
`O=C(NCc1nc(-c2ccc(Br)cc2)c[nH]1)Nc1nc2cc(C(F)(F)F)ccc2s1`: the IC50 in data set [2] is over 10000 nM. Also, in the data set with Clostridioides difficile, the MIC is 3.12 µg/mL (≈ 6.29 µM).
Taken in the same sequence, the figures for `O=C(NCc1nc(-c2ccc(Br)cc2)c[nH]1)Nc1ncc(Sc2ccccc2)s1` were 900 nM and 1.56 µg/mL (≈ 3.21 µM).
In data set [1], `CCOc1ccc2nc(NC(=O)NCc3nc(-c4ccc(Br)cc4)c[nH]3)sc2c1` showed a kinetic solubility of 79 µM (≈ 37.3 µg/mL). Further, the IC50 in data set [2] was 170 nM. For the same compound, the MIC with Clostridioides difficile is 12.5 µg/mL (≈ 26.5 µM).
As for `O=C(NCc1nc(-c2ccc(Br)cc2)c[nH]1)Nc1nc2ccc(Br)cc2s1`, the solubility (kinetic) in data set [1] is 31.3 µM (≈ 15.9 µg/mL). Moreover, in data set [2], the IC50 was 340 nM. Further, the MIC in the data set on Clostridioides difficile was found to be 50 µg/mL (≈ 98.6 µM).
Taken in the same sequence, the figures for `O=C(NCc1nc(-c2ccc(Br)cc2)c[nH]1)Nc1nc2c(F)cc(F)cc2s1` were 125 µM (≈ 58 µg/mL), 4530 nM and 12.5 µg/mL (≈ 26.9 µM).
Compound `O=C(NCc1nc(-c2ccc(Br)cc2)c[nH]1)Nc1ncc(Sc2ncccc2C(F)(F)F)s1` came in with a solubility (kinetic) in data set [1] of 52 µM (≈ 28.9 µg/mL). Besides, the IC50 is 240 nM in data set [2] and over 100 µg/mL with HCT-116. Moreover, in the data set with Clostridioides difficile, the MIC came out at 1.56 µg/mL (≈ 2.81 µM).
The compound `O=C(NCc1nc(-c2ccc(Br)cc2)c[nH]1)Nc1ncc(Sc2ccc3ccccc3n2)s1` had a kinetic solubility in data set [1] of 74.7 µM (≈ 40.1 µg/mL). Moreover, in data set [2], the IC50 is 750 nM. For the same compound, the MIC in the data set on Clostridioides difficile was over 50 µg/mL.
Take `O=C(NCc1nc(-c2ccc(Br)cc2)c[nH]1)Nc1nc2c(C(F)(F)F)cccc2s1`: the IC50 in data set [2] is over 10000 nM; in the data set with HCT-116 it was over 100 µg/mL. Besides, the MIC in the data set with Clostridioides difficile worked out at 1.56 µg/mL (≈ 3.14 µM).
With `O=C(NCc1nc(-c2ccc(Br)cc2)c[nH]1)Nc1ncc(Sc2ncccn2)s1`, the kinetic solubility in data set [1] turned out to be 83.9 µM (≈ 41 µg/mL). Also, the values for the IC50 (in data set [2]; with HCT-116) were 1020 nM and over 100 µg/mL, respectively. Moreover, the MIC in the data set on Clostridioides difficile amounted to 1.56 µg/mL (≈ 3.19 µM).
On to `O=C(NCc1nc(-c2ccccc2)c[nH]1)Nc1ncc(Sc2ccccc2)s1`, for which the IC50 in data set [3] came out at 37 nM.
For `O=C(NCc1ncc(-c2ccccc2)[nH]1)Nc1ncc(Sc2ccccn2)s1`, the IC50 in data set [2] is over 10000 nM. Besides, in the data set with Clostridioides difficile, the MIC was over 50 µg/mL.
For `O=C(NCc1nc(-c2ccc(Br)cc2)c[nH]1)Nc1nc2ccc(OC(F)(F)F)cc2s1`, in that order: 90 nM and 12.5 µg/mL (≈ 24.4 µM).
Regarding `O=C(NCc1nc(-c2ccc(Br)cc2)c[nH]1)Nc1ncc(Sc2ccc(Br)cc2)s1`, in data set [1], the solubility (kinetic) was found to be 63.6 µM (≈ 36 µg/mL). In addition, the IC50 in data set [2] worked out at 530 nM. Further, the MIC with Clostridioides difficile was 25 µg/mL (≈ 44.2 µM).
As for `O=C(NCc1ncc(-c2ccc(Br)cc2)[nH]1)Nc1ncc(Sc2ccccn2)s1`, the solubility (kinetic) in data set [1] came to 80.1 µM (≈ 39 µg/mL). The IC50 was 1230 nM in data set [2] and over 100 µg/mL in the data set on HCT-116. The MIC in the data set on Clostridioides difficile was 1.56 µg/mL (≈ 3.2 µM).
On to `COC(=O)c1ccc2nc(NC(=O)CSc3nc4ccccc4[nH]3)sc2c1`, for which the IC50 was determined as 4200 nM in data set [2] and 1800 nM in data set [3].
As to `O=C(NCc1nc(-c2ccc(Br)cc2)c[nH]1)Nc1ncc(Sc2nc3ccccc3s2)s1`, in data set [1], the solubility (kinetic) turned out to be 50 µM (≈ 27.2 µg/mL). For the same compound, in data set [2], the IC50 was 420 nM. In addition, the MIC in the data set on Clostridioides difficile was over 50 µg/mL.

By kinetic solubility is commonly meant solubility judged after dilution from a stock solution rather than from solid. A word on the IC50: it is the concentration at which inhibition is half-maximal. As usually defined, the MIC is the least concentration at which growth counts as inhibited.
